Results taken from patent US20240018140A1, “MODIFIED IMIDAZOPYRIDINES AS GLUCOSYLCERAMIDE SYNTHASE INHIBITORS” (Merck Sharp & Dohme LLC, priority 2020, published 2024).

Target: glucosylceramide synthase (GCS) (Homo sapiens (Human), UniProt Q16739)
Assay: UDP-Glo glucosylceramide synthase biochemical assay
Details: endogenous GCS in Golgi preparations from human A375 malignant melanoma skin cells; C6 ceramide and UDP-glucose substrates; 20 h incubation; UDP detected by luminescence
Method in brief: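 Endogenous GCS in Golgi preparations from A375 melanoma cells (1.5 μg total protein) preincubated 30 min at room temperature with compound. UDP-glucose and ceramide then added for 20 h at room temperature; UDP measured by luciferase luminescence. Normalized to DMSO (0%) and reference inhibitor (100%); EC50 and % Emax from 4PL fit.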

Chain of glucosylceramide synthase (GCS) (Q16739 whole entry): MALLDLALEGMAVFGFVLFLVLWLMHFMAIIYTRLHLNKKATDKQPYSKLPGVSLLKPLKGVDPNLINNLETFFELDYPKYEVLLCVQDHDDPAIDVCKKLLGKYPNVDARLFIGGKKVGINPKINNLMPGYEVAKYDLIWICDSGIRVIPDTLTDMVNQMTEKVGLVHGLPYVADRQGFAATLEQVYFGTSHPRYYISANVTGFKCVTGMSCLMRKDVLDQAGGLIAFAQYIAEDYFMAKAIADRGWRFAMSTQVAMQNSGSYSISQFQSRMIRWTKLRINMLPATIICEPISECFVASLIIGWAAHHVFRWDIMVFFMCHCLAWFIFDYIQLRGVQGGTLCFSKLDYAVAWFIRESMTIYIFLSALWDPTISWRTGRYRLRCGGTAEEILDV

In order of falling EC50:
1. NCc1cn2cccc(-c3ccccc3OCC(F)(F)F)c2n1 [Compound 80, (8-(2-(2,2,2-trifluoroethoxy)phenyl)imidazo[1,2-a]pyridin-2-yl)methanamine]  330 nM
2. CC(C)(C)NCc1cn2cccc(-c3ccccc3OCC(F)(F)F)c2n1 [Compound 79, 2-methyl-N-((8-(2-(2,2,2-trifluoroethoxy)phenyl)imidazo[1,2-a]pyridin-2-yl)methyl)propan-2-amine]  140 nM
3. CC1(CO)COC(c2cn3cc(Cl)cc(-c4ccccc4OCC(F)(F)F)c3n2)=N1 (stereo not drawn) [Compound 73, [2-[6-chloro-8-[2-(2,2,2-trifluoroethoxy)phenyl]imidazo[1,2-a]pyridin-2-yl]-4-methyl-5H-oxazol-4-yl]methanol]  32 nM
4. CC(C)(O)C1(C)COC(c2cn3cc(Cl)cc(-c4ccccc4OCC(F)(F)F)c3n2)=N1 (stereo not drawn) [Compound 78, 2-[2-[6-chloro-8-[2-(2,2,2-trifluoroethoxy)phenyl]imidazo[1,2-a]pyridin-2-yl]-4-methyl-5H-oxazol-4-yl]propan-2-ol]  32 nM
5. CC(C)(O)C1COC(c2cn3cc(Cl)cc(-c4ccccc4OCC(F)(F)F)c3n2)=N1 (stereo not drawn) [Compound 75, 2-(2-(6-chloro-8-(2-(2,2,2-trifluoroethoxy)phenyl)imidazo[1,2-a]pyridin-2-yl)-4,5-dihydrooxazol-4-yl)propan-2-ol]  30 nM
6. O=C(N[C@H]1C[C@@H](O)C1)c1cc2c(-c3ccccc3OCC(F)(F)F)cccc2cn1 [Compound 84]  16 nM
7. CC(C)(O)C1CN=C(c2cn3cc(Cl)cc(-c4ccccc4OCC(F)(F)F)c3n2)O1 (stereo not drawn) [Compound 76, 2-[2-[6-chloro-8-[2-(2,2,2-trifluoroethoxy)phenyl]imidazo[1,2-a]pyridin-2-yl]-4,5-dihydrooxazol-5-yl]propan-2-ol]  13 nM
8. NCC1CN=C(c2cn3cc(Cl)cc(-c4ccccc4OCC(F)(F)F)c3n2)O1 (stereo not drawn) [Compound 74, (2-(6-chloro-8-(2-(2,2,2-trifluoroethoxy)phenyl)imidazo[1,2-a]pyridin-2-yl)-4,5-dihydrooxazol-5-yl)methanamine]  12 nM
9. O=C(Nc1ccc2cccc(-c3ccccc3OCC(F)(F)F)c2n1)[C@H]1C[C@@H](O)C1 [Compound 81, cis-3-hydroxy-N-(8-(2-(2,2,2-trifluoroethoxy)phenyl)quinolin-2-yl)cyclobutane-1-carboxamide]  11 nM
10. O=C(Nc1ccc2c(F)ccc(-c3ccccc3OCC(F)(F)F)c2n1)[C@H]1C[C@H](O)C1 [Compound 83, trans-N-(5-fluoro-8-(2-(2,2,2-trifluoroethoxy)phenyl)quinolin-2-yl)-3-hydroxycyclobutane-1-carboxamide]  6.9 nM
11. CC(C)(O)C1(C)CN=C(c2cn3cc(Cl)cc(-c4ccccc4OCC(F)(F)F)c3n2)O1 (stereo not drawn) [Compound 77, 2-[2-[6-chloro-8-[2-(2,2,2-trifluoroethoxy)phenyl]imidazo[1,2-a]pyridin-2-yl]-5-methyl-4H-oxazol-5-yl]propan-2-ol]  3.7 nM
12. O=C(Nc1ccc2cccc(-c3ccccc3OCC(F)(F)F)c2n1)[C@H]1C[C@H](O)C1 [Compound 82, trans-3-hydroxy-N-(8-(2-(2,2,2-trifluoroethoxy)phenyl)quinolin-2-yl)cyclobutane-1-carboxamide]  3 nM
